# Laboratory results as given in US20120128665A1, “PRESELECTION OF SUBJECTS FOR THERAPEUTIC TREATMENT BASED ON HYPOXIC STATUS” (SYNTA PHARMACEUTICALS CORP., priority 2010, published 2012).
# Read-outs that look alike come from different tables or passages of the source.
# Tests used:
# [1] = test system: RCC and poor prognosis; settings: cited from earlier work
# [2] = test system: HCT116 tumors vs 786O tumors; assay: response of hypoxic vs non-hypoxic tumors; type: in vivo, nude mice; settings: doses as in the 3rd table
# [3] = test system: renal cell carcinoma cell lines; settings: cited from earlier work
# [4] = test system: advanced RCC and poor prognosis; settings: cited from earlier work; for progression-free survival / median overall survival: single agents; for progression-free survival: P=0.0001; for median overall survival: P=0.0078
# [5] = test system: metastatic colorectal cancer (mCRC); settings: P <0.001, cited from earlier work
# [6] = test system: metastatic colorectal cancer (mCRC); settings: cited from earlier work
# [7] = test system: HCT116 human colon carcinoma xenograft; assay: HCT116 xenograft model (hypoxic tumor); type: in vivo, nude mice
# Method: (§1) Human tumor cell lines HCT116 (ATCC #CRL-247; Schroy PC, et al. Cancer 76:201-209, 1995) and 786-O (ATCC #CRL-1932; Williams RD, et al. In Vitro 12:623-627, 1976), were obtained from the American Type Culture Collection (Manassus, Va., USA) were cultured using routine methods until a sufficient number of cells were obtained for implantation. Studies were conducted on animals between 7 and 12 weeks of age at implantation. To implant HCT116 tumor cells into nude mice, the cells were trypsinized, washed in PBS and resuspended at a concentration of 75×10^6 cells/ml in McCoy's modified medium with 50% of BD Matrigel® Basement Membrane Matrix (BD Biosciences®, Bedford, Mass., USA). To implant 786-O tumor cells into nude mice, the cells were trypsinized as above, washed in PBS and resuspended at a concentration of 75×10^6 cells/ml in RPMI 1640 medium with 50% of BD Matrigel® Basement Membrane Matrix. Using a 27 gauge needle and 1 cc syringe, 0.1 ml of the cell suspension was injected into the corpus adiposum of nude mice. The corpus adiposum is a fat body located in the ventral abdominal vicera in the right quadrant of the abdomen at the juncture of the os coxae (pelvic bone) and the os femoris (femur). The location permits palpation and measurement of the tumors using external calipers. Tumor volumes (V) were calculated by caliper measurement of the width (W), length (L) and thickness (T) of tumors using the following formula: V=0.5236×(L×W×T). Animals were randomized into treatment groups so that the average tumor volumes of each group were similar at the start of dosing.
# (§2) A tumor model in which the tumors have relatively high and low levels of LDH5, indicating high and low levels of hypoxia, using human tumor cell lines HCT116 and 786-O was established as set forth in the previous example.
# (§3) As above, HCT116 and 786-O cells were cultured and implanted into nude mice using the methods in the previous example. Tumor growth was measured using calipers. Prior to treatment with the various agents, tumors were permitted to develop in vivo until they reached approximately 150 mm^3 in volume, which typically required 2-3 weeks following implantation. Animals were randomized into treatment groups so that the average tumor volumes of each group were similar at the start of dosing.
# (§4) Tumor volume was monitored throughout the course of the study, until up to about 40 days from the date of tumor implantation. The exact number of days of the study depended on a number of factors including, for example, the number of days from implantation for the tumors to reach the desired volume.
# [8] = test system: pancreatic cancer; settings: PTK787 and gemcitabine, cited from earlier work
# [9] = test system: mCRC pretreated with 5-FU/irinotecan; settings: cited from earlier work
# [10] = test system: 786-O human renal carcinoma xenograft; assay: 786-O xenograft model (non-hypoxic tumor); type: in vivo, nude mice
# Method: as §1, §2, §3, §4
# [11] = test system: human tumor xenografts; settings: mice; cited from earlier work
# [12] = test system: angiogenesis; settings: mouse model; cited from earlier work
# [13] = target: T1, VEGFR-2 (Mus musculus, UniProt P35918); settings: in vivo, cited from earlier work
# T1 construct: from tissue; host or cells: mouse lungs (in vivo)
# [14] = target: PDGFR-β (Homo sapiens, UniProt P09619); settings: in vitro; cited from earlier work
# [15] = target: VEGFR-2 (Homo sapiens, UniProt P35968); settings: in vitro; cited from earlier work
# [16] = target: JAK2V617F (Homo sapiens, UniProt O60674, V617F); settings: cited from earlier work
# [17] = test system: locally advanced or metastatic NSCLC after failure of at least one chemotherapy regimen; settings: erlotinib 150 mg orally once daily; cited from earlier work
# [18] = test system: locally advanced or metastatic NSCLC; settings: maintenance, cited from earlier work
# [19] = test system: locally advanced, unresectable or metastatic pancreatic cancer; settings: 100 mg cohort, erlotinib arm = plus gemcitabine, comparator gemcitabine alone, cited from earlier work; for progression free survival: p=0.006; for survival: p=0.028
# [20] = test system: advanced pancreatic cancer; settings: Phase II, combination with Gemcitabine; cited from earlier work
# [21] = test system: previously treated metastatic renal cell carcinoma (mRCC); settings: Phase III, 2010; cited from earlier work
# [22] = test system: breast cancer; settings: xenograft models; cited from earlier work
# [23] = test system: advanced pancreatic cancer; settings: Phase III, combination with Gemcitabine; cited from earlier work
# [24] = test system: renal cancer; settings: bevacizumab arm = with interferon-alpha; comparator interferon-alpha alone; cited from earlier work
# [25] = target: mTORC2 (Homo sapiens, UniProt P42345); settings: immune-kinase assays; cited from earlier work
# [26] = test system: phosphorylated RPS6 (ribosomal protein S6); settings: TSC1-deficient cells; cited from earlier work
# [27] = target: mTORC1 (Homo sapiens, UniProt P42345); settings: immune-kinase assays; cited from earlier work
# [28] = 140 subjects with elevated LDH, log-rank p<0.005
# [29] = 264 subjects with normal LDH, log-rank p=0.514
# T1 sequence (P35918 20-1345): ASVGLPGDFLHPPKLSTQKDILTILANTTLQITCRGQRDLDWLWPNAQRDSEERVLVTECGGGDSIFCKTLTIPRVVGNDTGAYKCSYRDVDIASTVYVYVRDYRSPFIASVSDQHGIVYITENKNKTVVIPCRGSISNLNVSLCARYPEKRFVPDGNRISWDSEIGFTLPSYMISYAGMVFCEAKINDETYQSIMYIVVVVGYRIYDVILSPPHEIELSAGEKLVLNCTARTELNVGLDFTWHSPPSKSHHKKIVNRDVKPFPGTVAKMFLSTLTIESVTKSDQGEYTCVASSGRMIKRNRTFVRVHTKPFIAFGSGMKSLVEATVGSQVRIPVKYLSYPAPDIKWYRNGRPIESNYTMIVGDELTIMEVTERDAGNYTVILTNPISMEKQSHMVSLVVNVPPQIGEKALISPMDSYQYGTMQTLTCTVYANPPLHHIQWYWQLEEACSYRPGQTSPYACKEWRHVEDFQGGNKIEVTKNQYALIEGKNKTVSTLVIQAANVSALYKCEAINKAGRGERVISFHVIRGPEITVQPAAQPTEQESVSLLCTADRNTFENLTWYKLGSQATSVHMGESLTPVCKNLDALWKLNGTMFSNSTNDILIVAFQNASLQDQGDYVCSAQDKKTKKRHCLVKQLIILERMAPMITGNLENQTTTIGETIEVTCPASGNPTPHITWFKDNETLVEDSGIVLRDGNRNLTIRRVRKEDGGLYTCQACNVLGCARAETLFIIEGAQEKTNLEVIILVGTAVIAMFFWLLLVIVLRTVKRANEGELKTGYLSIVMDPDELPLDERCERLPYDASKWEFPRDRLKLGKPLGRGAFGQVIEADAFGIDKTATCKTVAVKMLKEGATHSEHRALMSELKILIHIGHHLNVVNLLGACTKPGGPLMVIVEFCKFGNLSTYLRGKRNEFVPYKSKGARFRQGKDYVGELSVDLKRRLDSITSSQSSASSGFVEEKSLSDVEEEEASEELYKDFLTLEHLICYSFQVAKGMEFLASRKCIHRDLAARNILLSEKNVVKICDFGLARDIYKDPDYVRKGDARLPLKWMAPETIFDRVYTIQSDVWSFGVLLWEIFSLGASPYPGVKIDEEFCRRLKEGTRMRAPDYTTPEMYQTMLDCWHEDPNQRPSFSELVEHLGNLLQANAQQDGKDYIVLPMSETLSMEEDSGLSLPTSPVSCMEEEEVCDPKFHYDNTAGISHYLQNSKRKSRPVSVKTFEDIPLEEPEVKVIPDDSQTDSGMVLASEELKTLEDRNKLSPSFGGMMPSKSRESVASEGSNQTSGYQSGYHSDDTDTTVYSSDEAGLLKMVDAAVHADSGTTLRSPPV
# JAK2V617F, sequence (O60674 whole entry V617F): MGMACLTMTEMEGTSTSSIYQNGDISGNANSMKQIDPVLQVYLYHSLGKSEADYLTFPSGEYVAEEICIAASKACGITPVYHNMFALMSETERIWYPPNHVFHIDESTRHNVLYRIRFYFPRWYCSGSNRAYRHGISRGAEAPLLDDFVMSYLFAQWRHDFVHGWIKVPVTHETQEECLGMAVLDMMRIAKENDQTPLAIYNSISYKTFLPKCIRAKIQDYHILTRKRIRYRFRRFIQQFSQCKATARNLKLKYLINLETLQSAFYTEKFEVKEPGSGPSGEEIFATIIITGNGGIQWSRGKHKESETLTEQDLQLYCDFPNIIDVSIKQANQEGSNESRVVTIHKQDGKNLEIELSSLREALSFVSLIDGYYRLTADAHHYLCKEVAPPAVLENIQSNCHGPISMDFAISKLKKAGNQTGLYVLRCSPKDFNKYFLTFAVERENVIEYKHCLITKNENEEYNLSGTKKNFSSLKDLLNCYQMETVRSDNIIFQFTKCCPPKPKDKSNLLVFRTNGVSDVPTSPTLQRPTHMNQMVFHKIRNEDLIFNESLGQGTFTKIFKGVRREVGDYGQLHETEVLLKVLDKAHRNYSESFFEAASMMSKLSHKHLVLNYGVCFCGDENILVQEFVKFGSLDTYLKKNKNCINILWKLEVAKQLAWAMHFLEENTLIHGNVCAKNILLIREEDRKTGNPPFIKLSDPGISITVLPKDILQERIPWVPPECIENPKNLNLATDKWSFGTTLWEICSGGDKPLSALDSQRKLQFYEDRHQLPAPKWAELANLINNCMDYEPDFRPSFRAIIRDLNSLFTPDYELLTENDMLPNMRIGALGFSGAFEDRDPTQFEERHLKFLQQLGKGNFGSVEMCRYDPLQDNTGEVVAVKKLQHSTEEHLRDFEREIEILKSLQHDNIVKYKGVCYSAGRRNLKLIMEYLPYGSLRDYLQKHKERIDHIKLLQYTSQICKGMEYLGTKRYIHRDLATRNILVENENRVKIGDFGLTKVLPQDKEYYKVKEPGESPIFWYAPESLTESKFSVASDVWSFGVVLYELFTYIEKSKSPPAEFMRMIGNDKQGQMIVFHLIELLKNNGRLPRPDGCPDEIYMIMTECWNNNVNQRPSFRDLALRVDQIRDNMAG
# PDGFR-β, sequence (P09619 33-1106, species assumed): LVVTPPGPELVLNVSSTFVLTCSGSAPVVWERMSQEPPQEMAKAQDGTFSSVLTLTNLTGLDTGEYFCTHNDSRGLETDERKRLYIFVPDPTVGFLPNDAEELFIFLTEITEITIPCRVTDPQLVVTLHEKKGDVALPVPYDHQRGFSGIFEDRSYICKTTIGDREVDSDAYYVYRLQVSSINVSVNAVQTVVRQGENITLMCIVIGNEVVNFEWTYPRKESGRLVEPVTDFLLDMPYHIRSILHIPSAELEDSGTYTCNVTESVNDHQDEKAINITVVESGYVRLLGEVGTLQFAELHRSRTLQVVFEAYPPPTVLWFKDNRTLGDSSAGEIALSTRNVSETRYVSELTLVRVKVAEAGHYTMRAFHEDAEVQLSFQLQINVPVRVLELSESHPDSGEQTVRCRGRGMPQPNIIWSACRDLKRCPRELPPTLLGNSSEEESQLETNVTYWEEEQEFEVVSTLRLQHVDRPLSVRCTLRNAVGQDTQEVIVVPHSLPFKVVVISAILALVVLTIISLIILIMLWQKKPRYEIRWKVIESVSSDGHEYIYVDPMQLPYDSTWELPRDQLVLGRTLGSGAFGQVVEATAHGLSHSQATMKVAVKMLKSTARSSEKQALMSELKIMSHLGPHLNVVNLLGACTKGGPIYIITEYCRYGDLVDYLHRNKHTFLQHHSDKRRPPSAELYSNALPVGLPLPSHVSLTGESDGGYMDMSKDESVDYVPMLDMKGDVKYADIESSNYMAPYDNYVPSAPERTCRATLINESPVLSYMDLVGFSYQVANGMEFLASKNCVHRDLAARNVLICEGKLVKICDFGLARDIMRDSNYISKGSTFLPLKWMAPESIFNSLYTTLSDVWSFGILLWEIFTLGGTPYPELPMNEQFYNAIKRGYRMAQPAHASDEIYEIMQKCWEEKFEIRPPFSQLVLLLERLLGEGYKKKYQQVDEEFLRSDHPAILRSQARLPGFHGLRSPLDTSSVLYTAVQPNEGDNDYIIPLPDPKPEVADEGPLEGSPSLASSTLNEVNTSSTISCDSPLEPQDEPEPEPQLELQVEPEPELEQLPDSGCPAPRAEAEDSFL
# VEGFR-2 (Homo sapiens, UniProt P35968), sequence (P35968 20-1356, species assumed): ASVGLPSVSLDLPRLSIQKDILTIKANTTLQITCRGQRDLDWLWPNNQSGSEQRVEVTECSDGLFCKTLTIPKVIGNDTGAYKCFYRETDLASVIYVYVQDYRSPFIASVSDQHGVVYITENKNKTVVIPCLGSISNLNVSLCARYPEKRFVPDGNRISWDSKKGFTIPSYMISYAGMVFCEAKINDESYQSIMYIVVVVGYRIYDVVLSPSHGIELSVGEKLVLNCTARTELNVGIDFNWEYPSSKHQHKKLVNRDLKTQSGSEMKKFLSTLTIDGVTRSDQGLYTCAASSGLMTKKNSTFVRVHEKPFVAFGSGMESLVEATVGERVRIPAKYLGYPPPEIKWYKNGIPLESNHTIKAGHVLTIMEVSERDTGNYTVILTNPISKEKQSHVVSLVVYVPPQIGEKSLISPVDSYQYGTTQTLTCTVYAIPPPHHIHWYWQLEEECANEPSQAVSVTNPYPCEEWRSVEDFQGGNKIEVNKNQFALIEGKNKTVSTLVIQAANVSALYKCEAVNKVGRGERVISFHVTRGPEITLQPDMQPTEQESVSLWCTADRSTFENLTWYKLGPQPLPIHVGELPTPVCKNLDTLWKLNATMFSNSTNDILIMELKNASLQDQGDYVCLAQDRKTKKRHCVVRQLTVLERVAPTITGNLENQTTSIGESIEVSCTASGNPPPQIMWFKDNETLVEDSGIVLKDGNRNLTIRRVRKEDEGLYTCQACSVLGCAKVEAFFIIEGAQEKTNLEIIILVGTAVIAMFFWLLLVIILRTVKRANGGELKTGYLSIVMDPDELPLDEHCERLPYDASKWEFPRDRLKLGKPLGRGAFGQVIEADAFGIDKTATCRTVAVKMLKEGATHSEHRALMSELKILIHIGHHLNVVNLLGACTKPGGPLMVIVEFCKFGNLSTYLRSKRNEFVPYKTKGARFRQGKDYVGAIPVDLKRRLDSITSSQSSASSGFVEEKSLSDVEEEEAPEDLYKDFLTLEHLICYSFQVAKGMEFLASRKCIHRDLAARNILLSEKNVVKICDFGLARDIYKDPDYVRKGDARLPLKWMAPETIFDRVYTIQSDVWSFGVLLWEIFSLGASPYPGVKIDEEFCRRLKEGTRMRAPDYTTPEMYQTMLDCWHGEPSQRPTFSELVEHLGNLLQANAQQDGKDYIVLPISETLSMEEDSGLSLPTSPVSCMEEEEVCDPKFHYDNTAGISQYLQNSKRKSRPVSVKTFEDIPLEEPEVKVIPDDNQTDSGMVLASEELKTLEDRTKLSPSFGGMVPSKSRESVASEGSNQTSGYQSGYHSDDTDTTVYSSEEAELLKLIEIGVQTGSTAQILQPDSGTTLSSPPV
molecule,measurement,setting,value
CO[C@H]1C[C@@H]2CC[C@@H](C)[C@@](O)(O2)C(=O)C(=O)N2CCCC[C@H]2C(=O)O[C@H]([C@H](C)C[C@@H]2CC[C@@H](OC(=O)C(C)(CO)CO)[C@H](OC)C2)CC(=O)[C@H](C)/C=C(\C)[C@@H](O)[C@@H](OC)C(=O)[C@H](C)C[C@H](C)/C=C/C=C/C=C/1C [temsirolimus],survival,[1]; [28],6.9 months
same,survival,[1]; [29],11.7 months
same,effectiveness at slowing tumor growth in tumors with high levels of hypoxia (HCT116) compared with low levels (786O),[2],not found to work better
same,activity of mTOR,[3],inhibited
same,"levels of HIF-1 and HIF-2 alpha, and vascular endothelial growth factor",[3],reduced levels
same,overall survival compared with interferon-alpha alone,[4]; combination of temsirolimus and interferon-alpha,did not result in a significant increase in overall survival
same,increase in median overall survival compared to interferon-alpha,"[4]; human, in vivo",49%
same,progression-free survival,[4],5.5 months
same,median overall survival,[4],10.9 months
CCN(CC)CCNC(=O)c1c(C)[nH]c(/C=C2\C(=O)Nc3ccc(F)cc32)c1C [sutent],effectiveness at slowing tumor growth in tumors with high levels of hypoxia (HCT116) compared with low levels (786O),[2],not found to work better
"Clc1ccc(Nc2nnc(Cc3ccncc3)c3ccccc23)cc1 [PTK787, N-(4-chlorophenyl)-4-(pyridin-4-ylmethyl)phthalazin-1-amine]",PFS HR,"[5]; All CONFIRM 1 & 2 High LDH Patients, N 566",0.62
same,PFS HR,"[5]; All CONFIRM 1 & 2 Patients, N 2023",0.82
same,PFS HR,"[6]; CONFIRM 1 - High LDH, N 316, P 0.002",0.61
same,PFS HR,"[6]; CONFIRM 1 - Low LDH, N 852, P 0.43",0.93
same,effectiveness at slowing tumor growth in tumors with high levels of hypoxia (HCT116) compared with low levels (786O),[2],more effective
same,tumor growth as compared to control,"[7]; 50 mg/kg 5×/week p.o., p=0.1209",reduced the growth of the tumor
same,duration of stable disease,[8],2-6 months
same,patients with stable disease as the best response,[8]; six of eleven patients,55%
same,PFS HR,"[9]; CONFIRM 2 - High LDH, N 250",0.63
same,PFS HR,"[9]; CONFIRM 2 - Low LDH, N 605, P 0.58",0.95
same,tumor burden as compared to control,"[10]; 50 mg/kg 5×/week p.o., p=0.7805",no difference in tumor burden
same,tumor burden as compared to control,"[10]; Erlotinib section, FIG. 5B, 1×/week p.o., p=0.8548",no difference in tumor burden
same,tumor burden as compared to control,"[10]; XL765 section, FIG. 4B, 30 mg/kg 5×/week p.o., p=0.7682",no difference in tumor burden
COc1cc(Nc2nc3ccccc3nc2NS(=O)(=O)c2ccc(NC(=O)c3ccc(C)c(OC)c3)cc2)cc(OC)c1 [XL765],effectiveness at slowing tumor growth in tumors with high levels of hypoxia (HCT116) compared with low levels (786O),[2],more effective
same,tumor growth rate as compared to control,"[7]; 30 mg/kg 5×/week p.o., p=0.009",reduced the growth rate of the tumor
Cc1ccc(Nc2nccc(N(C)c3ccc4c(C)n(C)nc4c3)n2)cc1S(N)(=O)=O.Cl [pazopanib],growth of some human tumor xenografts,[11],inhibited
same,angiogenesis,[12],inhibited
same,VEGF-induced VEGFR-2 phosphorylation,[13]; mouse lungs,inhibited
same,ligand-induced autophosphorylation of PDGFR-β,[14],inhibited
Cediranib,growth of some human tumor xenografts,[11],inhibited
same,angiogenesis,[12],inhibited
same,VEGF-induced VEGFR-2 phosphorylation,[13]; mouse,inhibited
same,ligand-induced autophosphorylation of VEGFR-2,[15],inhibited
CNC(=O)c1cc(Oc2ccc(NC(=O)Nc3ccc(Cl)c(C(F)(F)F)c3)cc2)ccn1 [sorafenib],effectiveness at slowing tumor growth in tumors with high levels of hypoxia (HCT116) compared with low levels (786O),[2],not found to work better
C#Cc1cccc(Nc2ncnc3cc(OCCOC)c(OCCOC)cc23)c1 [erlotinib],JAK2V617F activity,[16],potent inhibitor
same,effectiveness at slowing tumor growth in tumors with high levels of hypoxia (HCT116) compared with low levels (786O),[2],more effective
same,tumor growth rate as compared to control,"[7]; 1×/week p.o., doses 40, 25, 10 mg/kg in the 3rd table, p=0.0224",reduced the growth rate of the tumor
same,progression free survival,[17],9.9 weeks
same,rate of one year survival,[17],31.2%
same,"response duration, median",[17],34.3 weeks
same,survival,[17],6.7 months
same,tumor response,[17],8.9%
same,progression free survival,[18]; erlotinib 150 mg orally once daily,2.8 months
same,overall survival,[18]; difference not statistically significant,12 weeks
same,progression free survival,[19],3.8 months
same,survival,[19],6.4 months
"CNC(=O)c1ccccc1Sc1ccc2c(/C=C/c3ccccn3)n[nH]c2c1 [Axitinib, N-Methyl-2-[[3-[(E)-2-pyridin-2-ylethenyl]-1H-indazol-6-yl]sulfanyl]benzamide]",response,[20],good response
same,progression-free survival compared to sorafenib,[21],significantly extended progression-free survival
same,growth of breast cancer,[22],significantly inhibit growth
same,survival rates over Gemcitabine alone,[23],no evidence of improved survival rates
interferon-alpha,survival,[1]; [28],4.2 months
same,survival,[1]; [29],10.4 months
same,patients with decreased tumor size,[24],12%
same,progression-free survival,[4],3.1 months
same,median overall survival,[4],7.3 months
Cn1c(=O)n(-c2ccc(C(C)(C)C#N)cc2)c2c3cc(-c4cnc5ccccc5c4)ccc3ncc21 [BEZ235],mTORC2 kinase activity,[25],blocks
same,effectiveness at slowing tumor growth in tumors with high levels of hypoxia (HCT116) compared with low levels (786O),[2],not found to work better
same,levels of phosphorylated RPS6,[26],significantly reduce
same,mTORC1 kinase activity,[27],blocks
panitumumab: Anti-EGFR,effectiveness at slowing tumor growth in tumors with high levels of hypoxia (HCT116) compared with low levels (786O),[2],not found to work better
Nc1ccn([C@@H]2O[C@H](CO)[C@@H](O)C2(F)F)c(=O)n1 [gemcitabine],progression free survival,[19],3.5 months
same,survival,[19],6.0 months
